In assay [1] the test system is Malme-3M. Put plainly: Growth inhibition of human MALME-3M cells after 48 hrs by sulforhodamine B assay. The class given is functional. A general note: Sulforhodamine B stains cellular protein and so reports cell mass.
Assay [2] concerns HCT-116. Put plainly: Cell cycle arrest in human HCT116 cells assessed as accumulation of sub-G0-G1 phase at 5 uM after 48 hrs using propidium iodide staining by flow cytometric analysis (reference value: 15.2%). Type of assay: functional.
Assay [3] concerns OVCAR-8. Put plainly: Growth inhibition of human OVCAR8 cells after 48 hrs by sulforhodamine B assay. The class given is functional. Particulars: OVCAR-8, 48 h.
The subject of assay [4] is OVCAR-3. Put plainly: Growth inhibition of human OVCAR3 cells after 48 hrs by sulforhodamine B assay. Type of assay: functional. The following applies: OVCAR-3, 48 h.
Assay [5] deals with MDA-MB-231. Put plainly: Cell cycle arrest in human MDA-MB-231 cells assessed as accumulation of sub-G0-G1 phase at 5 uM after 48 hrs using propidium iodide staining by flow cytometric analysis (reference value: 8.4%). Type of assay: functional. On the technique in general: In flow cytometry, cells or beads pass a laser one at a time.
Assay [6] deals with HCT-116. Put plainly: Cell cycle arrest in human HCT116 cells assessed as accumulation of G0-G1 phase at 5 uM after 48 hrs using propidium iodide staining by flow cytometric analysis (reference value: 45.7%). The class given is functional.
The test system of assay [7] is MDA-MB-231. Put plainly: Growth inhibition of human MDA-MB-231 cells after 48 hrs by sulforhodamine B assay. Type of assay: functional. The following applies: MDA-MB-231, 48 h.
The target in assay [8] is T1, Retinoblastoma-associated protein (Homo sapiens) (UniProt P06400).
T1 sequence (whole entry): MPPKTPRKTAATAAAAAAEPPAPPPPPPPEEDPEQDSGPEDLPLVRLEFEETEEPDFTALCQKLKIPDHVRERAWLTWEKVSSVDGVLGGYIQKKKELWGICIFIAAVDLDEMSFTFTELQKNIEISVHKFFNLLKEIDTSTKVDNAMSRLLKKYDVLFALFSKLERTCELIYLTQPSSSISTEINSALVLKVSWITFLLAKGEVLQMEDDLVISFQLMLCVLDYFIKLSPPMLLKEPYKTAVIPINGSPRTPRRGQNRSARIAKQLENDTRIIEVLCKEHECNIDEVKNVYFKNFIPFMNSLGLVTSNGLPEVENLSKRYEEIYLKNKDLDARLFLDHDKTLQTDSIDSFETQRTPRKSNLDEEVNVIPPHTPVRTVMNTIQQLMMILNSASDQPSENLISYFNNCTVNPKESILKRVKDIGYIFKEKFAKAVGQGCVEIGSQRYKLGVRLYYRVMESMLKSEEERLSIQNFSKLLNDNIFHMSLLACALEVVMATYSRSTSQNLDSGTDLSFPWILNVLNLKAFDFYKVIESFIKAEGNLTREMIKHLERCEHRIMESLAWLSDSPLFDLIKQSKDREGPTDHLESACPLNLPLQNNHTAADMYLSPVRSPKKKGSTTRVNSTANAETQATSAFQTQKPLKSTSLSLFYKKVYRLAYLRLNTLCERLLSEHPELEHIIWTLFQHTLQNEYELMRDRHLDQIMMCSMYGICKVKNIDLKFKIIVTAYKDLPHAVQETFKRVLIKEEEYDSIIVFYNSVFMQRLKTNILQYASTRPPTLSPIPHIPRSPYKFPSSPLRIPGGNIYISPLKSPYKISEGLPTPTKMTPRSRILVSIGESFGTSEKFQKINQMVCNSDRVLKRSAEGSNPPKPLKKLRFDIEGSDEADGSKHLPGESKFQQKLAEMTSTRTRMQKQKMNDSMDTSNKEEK
Put plainly: Inhibition of pRb p110 phosphorylation in human HCT116 cells after 48 hrs by Western blotting. Type of assay: cell-based. Particulars: HCT-116. For orientation: Immunoblotting shows a protein as a band on a membrane.

In ChEMBL document CHEMBL3102801, “Synthesis and antiproliferative activity of new derivatives containing the polycyclic system 5,7:7,13-dimethanopyrazolo[3,4-b]pyrazolo[3',4':2,3]azepino[4,5-f]azocine” (Eur J Med Chem, 2014) one finds GI50, Activity and inhibition data, which are given here for one compound.

Usually GI50 stands for the concentration that inhibits growth by half. Lower therefore signals greater sensitivity of the cells. Turning to `C=C1c2c(C)nn(-c3ccc(OC)cc3)c2N(C)C23CC1C1(C)c4c(C)nn(-c5ccc(OC)cc5)c4N(C)C(C)(CC12)C3` (stereo not drawn), the GI50 in assay [1] was 3.24 µM; in assay [3] it was 3.4 µM; in assay [4] it was 3.27 µM; in assay [7], 3.11 µM. Moreover, the Activity in assay [2] is 14.3%; in assay [5], 11.5%; in assay [6], 59%. The inhibition result in assay [8] was “Dose-dependent effect”.
